2 compounds from patent US10874709B2, “Conjugate of salicylic acid and peptide” (CAREGEN CO., LTD., priority 2017, dated 2020) can be followed below.

Data set [1] in a line: Test of solubility in water. It is filed as physicochemical. The note with it: distilled water, concentration of 10 mg/ml.
Data set [2] deals with HaCaT keratinocyte cell line. Kind of data set: Keratinocyte growth, sulforhodamine B colorimetric assay. The note with it: 50 μM, 72 hours, SRB, absorbance 560 nm. The data set is classed as cell-based. As to the method: (Cancer Res. 48:4266(1988)) […] The cultured cell line was detached from the bottom of the culture plate using a 1% trypsin solution, and only cell precipitate was collected by centrifugation. The cell precipitate was suspended in DMEM without FBS, and then cultured for 24 hours under conditions of 37° C. and 5% CO2. 24 hours later, the medium was replaced by the same medium from which serum was completely removed. A blank sample in which the cell precipitate was dissolved sterile in 10% DMSO was prepared for standardization. Each of the compound 1 to the compound 4 (50 μM) of the present disclosure, salicylic acid (50 μM), and EGF (100 nM) as a positive control were treated. Incubation was carried out under the same conditions as above for 72 hours. After completing the incubation, each culture supernatant was removed and cells were fixed with ethanol and washed with phosphate buffer saline (PBS) three times. After removing the washing solution, the cells were treated with a colorimetric SRB solution, and then sufficiently washed with 1% acetic acid. The cells were observed under a microscope to examine living cells. Absorbance at UV 560 nm was measured to determine cell viability.

Data set [3] has as its system TNF-α, IL-6, IL-1b, and COX-2. The experiment in a line: Anti-inflammatory effect, Propionibacterium acnes-induced inflammatory cytokine mRNA by RT-PCR. The following applies: keratinocyte, 50 μg/ml Propionibacterium acnes, 50 μM, 24 hours. The data set is classed as cell-based. As to the method: Anti-inflammatory effects of the compounds of the present disclosure were examined using Propionibacterium acnes. To this end, keratinocyte was seeded in a 6-well plate at a density of 300,000 cells per well, and then incubated in a DMEM culture medium (Gibco, USA) containing 10% FBS for 24 hours under conditions of 37° C. and 5% CO2. After replacing the medium by a fresh medium, the cells were treated with 50 μg/ml of Propionibacterium acnes, and then the treated Propionibacterium acnes was treated with each 50 μM of the compound 1 and the compound 3 of the present disclosure and salicylic acid used as the positive control, followed by incubation for 24 hours under the same conditions as above. RNA was isolated from the cells, and cDNA was synthesized using a cDNA synthesis kit (Intron, Korea). PCR premix (Intron, Korea) and primers for each of TNF-α, IL-6, IL-1b, and COX-2 in Table 3 below were used to perform PCR. mRNA levels of TNF-α, IL-6, IL-1 b and COX-2 were determined by 5% agarose gel electrophoresis.

The next data set concerns Propionibacterium acnes. The experiment in a line: Antibacterial effect, paper disc clear zone on agar plate. The data set is classed as cell-based. The note with it: paper discs soaked with 200 mM, 3 days. As to the method:
Antibacterial effects of the compounds synthesized in Example <1-2> were examined using Propionibacterium acnes. To this end, Propionibacterium acnes was first cultured on an agar plate. Paper discs were soaked with each 200 mM of the compound 1 to the compound 4 synthesized in Example <1-2> and salicylic acid, and then the paper disc soaked with the sample was placed on the agar plate on which Propionibacterium acnes had been cultured, followed by incubation. 3 days later, the size of a clear zone with no microbial growth was measured to determine the antibacterial effect of each compound.

Data set [4] concerns collagen, elastin, and fibronectin. The experiment in a line: Extracellular matrix protein expression by immunocytostaining. The note with it: NIH3T3 fibroblast, 50 μM, 72 hours, as compared with salicylic acid. It is filed as cell-based. As to the method: (§1) Effects of the compounds of the present disclosure on extracellular matrix expression were examined using NIH3T3 fibroblast. To this end, NIH3T3 fibroblast was seeded in a 6-well plate at a density of 300,000 cells per well, and then incubated in a DMEM culture medium (Gibco, USA) containing 10% FBS for 24 hours under conditions of 37° C. and 5% CO2. The cultured cell line was detached from the bottom of the culture plate using a 1% trypsin solution, and a cell precipitate was collected by centrifugation. The cell precipitate was suspended in DMEM without FBS, and then cultured for 24 hours under conditions of 37° C. and 5% CO2. 24 hours later, the medium was replaced by the same medium from which serum was completely removed. A blank sample in which the cell precipitate was dissolved sterile in 10% DMSO was prepared for standardization. Each of the compound 1 and the compound 3 of the present disclosure, and salicylic acid as a positive control were treated at a concentration of 50 μM. Incubation was carried out under the same conditions as above for 72 hours. Thereafter, to examine collagen, elastin, and fibronectin expression by immunocytostaining, cells were fixed with 4% paraformaldehyde, permeated with 0.5% Triton X-100, and blocked with 3% BSA. […]

Data set [5] shares this test system. The experiment in a line: Extracellular matrix mRNA expression by RT-PCR. It is filed as cell-based. The following applies: NIH3T3 fibroblast, 50 μM, 72 hours, as compared with salicylic acid. As to the method: as §1, with “hours.” for “hours. Thereafter, to examine collagen, elastin, and fibronectin expression by immunocytostaining, cells were fixed with 4% paraformaldehyde, permeated with 0.5% Triton X-100, and blocked with 3% BSA.”
Meanwhile, RNA was isolated from the cells treated in the same manner as the above experiment, and then cDNA was synthesized using a cDNA synthesis kit (Intron, Korea). […] Thereafter, mRNA levels of collagen, elastin, and fibronectin were determined by 5% agarose gel electrophoresis.

Ends that are not written are not given here.

As to `O=C(O)c1ccccc1O` [salicylic acid, 2-hydroxybenzoic acid], the solubility in water entry in data set [1] is recorded as “hardly dissolved in water”. Further, in data set [2], the growth of keratinocytes result is listed as “inhibited growth of keratinocytes due to toxicity”. Also, in data set [3], the “expression of inflammatory cytokines induced by Propionibacterium acnes” value was “hardly inhibited”.
For the compound “compound 3: salicylic acid linked via covalent bond to peptide of SEQ ID NO: 3 (KLKKTETQ) (also: salicylic acid linked via covalent bond)”, in the data set on Propionibacterium acnes, the “antibacterial effect (size of clear zone)” value is “remarkably increased antibacterial effects”. In addition, the “protein expression levels of collagen, elastin, and fibronectin” value in data set [4] is given as “remarkably increased”. In addition, the “mRNA expression levels of collagen, elastin, and fibronectin” value in data set [5] is “remarkably increased”. In addition, in data set [3], the “expression of inflammatory cytokines induced by Propionibacterium acnes” value was “remarkably reduced”.
